Series [1] deals with myeloid cell line derived from MUTZ-3.
For series [2] the test system is unchanged. This is another data set of the same source.
Series [3] shares this test system. Put plainly: GARD random forest model predicting CLP categories (52 transcripts, Example A). The conditions noted are these: test set; for GARD predicted CLP: majority voting across replicates; for predicted CLP: separate replicates.
Series [4] has the same test system. Briefly: Cytotoxicity / viability by flow cytometry (propidium iodide), 24 hours exposure. The conditions noted are these: yes/no; MUTZ-3 derived cells. For orientation: Flow cytometry measures light scatter and fluorescence of single cells or particles in a stream.
Series [5] shares this test system. Put plainly: GARD binary classification (SVM on GARD prediction signature, 200 transcripts). The conditions noted are these: SVM, median calibrated decision value of replicates >0 = sensitizer.
Series [6] has the same test system. The source holds these as a separate data set.
For series [7] the following is noted: cited from earlier work; for binary class: sens / non-sens; for true CLP: test set.
For series [8] the following is noted: cited from earlier work; for binary class (HP*): based on human potency [41] where available, otherwise according to CLP; for HP: human potency, chemicals of random forest training and test set; for Human potency [41]: test set.
The mark [9] stands for this setting: CLP annotation of 37 novel chemicals.
Where [10] appears, read: chemicals of random forest training and test set.

Values joined by “and” are separate entries in the source; they are usually repeats but may differ in a detail not shown here. Equal entries are not always repeated. “Also recorded” adds a separate entry of the source. Where two headings read alike, the source gives them in different places.

For the compound `CCCCC/C(=C/c1ccccc1)CO` [amylcinnamyl alcohol], the GARD binary prediction entry in series [1] was “S”. In addition, the cytotox result in series [2] is listed as “yes”.
Turning to `Nc1ccccc1` [aniline], in series [1], the “GARD binary classification relative to cut-off defined by benchmark samples” value is recorded as “close to the cut-off”.
With `O=C(OCc1ccccc1)c1ccccc1` [benzyl benzoate], in series [3], the “GARD predicted CLP” value was 1B and the “predicted CLP” value is reported as 1B. For the same compound, the cytotox entry in series [4] is listed as “yes”. In addition, the GARD binary prediction result in series [5] is “S”.
Take `CC(C)(c1ccc(OCC2CO2)cc1)c1ccc(OCC2CO2)cc1` (stereo not shown) [bisphenol A-diglycidyl ether]: the GARD binary prediction result in series [1] is “S”. In series [3], the “GARD predicted CLP” value is recorded as 1A and the “predicted CLP” value is 1A.
Consider `CCCCOCC1CO1` (stereo not shown) [butyl glycidyl ether], for which the “GARD binary classification relative to cut-off defined by benchmark samples” value in series [1] is on record as “close to the cut-off”. Further, the cytotox result in series [2] is reported as “yes”. In addition, the “GARD predicted CLP” value in series [6] (human, 24 h) is 1A.
For `Clc1nc(Cl)nc(Cl)n1` [cyanuric chloride], the CLP in series [7] (setting [9]) is listed as 1A; in series [7] (Table 10, chemicals test set 1), 1A; in series [7] (setting [10]) it was 1A. The binary class result in series [7] (setting [10]) is “sens”. Moreover, the “true CLP” value in series [7] (per replicate line) and in series [7] was 1A each time. For the same compound, in series [3], the “GARD predicted CLP” value is “no cat; also recorded: no category”. The “predicted CLP” value in series [3] is “no cat (2×) and 1B”. Moreover, the “binary class (HP*)” value in series [8] was “S (HP 1-4 = S)”. In series [4], the cytotox entry is “yes”.
For the compound `CCOc1cc(C=O)ccc1O` [ethyl vanillin], the “GARD predicted CLP” value in series [6] is listed as “no cat”. In addition, the “predicted CLP” value in series [6] was “no cat”; in series [6] (human, 24 h), 1B.
In the case of `O=CCCCC=O` [glutaraldehyde], the CLP in series [7] (setting [9]) is reported as 1A. Further, in series [7] (Table 10, chemicals test set 1), the CLP was 1A. Also, in series [7] (setting [10]), the CLP is recorded as 1A and the binary class result is “sens”. Further, the “true CLP” value in series [7] (per replicate line) is reported as 1A. For the same compound, the “true CLP” value in series [7] is recorded as 1A. For the same compound, in series [3], the “GARD predicted CLP” value is reported as 1A and the “predicted CLP” value is on record as 1A. Besides, in series [8], the “binary class (HP*)” value was “S (HP 1-4 = S)”, the HP is given as 2 and the “Human potency [41]” value is listed as 2. In addition, the cytotox entry in series [4] was “yes”. Moreover, the GARD binary prediction result in series [5] was “S”.
With `C=CC(C)(O)CCC=C(C)C` (stereo not shown) [linalool], the CLP in series [7] (setting [9]) is given as 1B. In addition, the CLP in series [7] (Table 10, chemicals test set 1) is reported as 1B. For the same compound, in series [7] (setting [10]), the CLP was 1B and the binary class entry is reported as “sens”. Also, in series [7] (per replicate line), the “true CLP” value is given as 1B. Further, in series [7], the “true CLP” value is 1B. Besides, in series [3], the “GARD predicted CLP” value is listed as 1B; the “predicted CLP” value was “no cat and 1B (2×)”. Moreover, in series [8], the “binary class (HP*)” value is “S (HP 1-4 = S)”, the HP is 4 and the “Human potency [41]” value is listed as 4. Moreover, the cytotox entry in series [4] is recorded as “no”.
For the compound `CC(C)(O)CCCC1=CCC(C=O)CC1` (stereo not shown) [lyral], in series [7] (setting [9]), the CLP was 1B. The CLP in series [7] (Table 10, chemicals test set 1) is reported as 1B. Besides, in series [7] (setting [10]), the CLP is listed as 1B and the binary class entry is recorded as “sens”. Moreover, the “true CLP” value in series [7] (per replicate line) is reported as 1B. The “true CLP” value in series [7] was 1B. Further, in series [3], the “GARD predicted CLP” value is listed as 1A; the “predicted CLP” value is 1A (2×) and 1B. Besides, in series [8], the “binary class (HP*)” value is “S (HP 1-4 = S)”, the HP was 2 and the “Human potency [41]” value was 2. In addition, in series [4], the cytotox entry is given as “yes”. Also, in series [5], the GARD binary prediction result was “S”.
With `CCCOC(=O)c1cc(O)c(O)c(O)c1` [propyl gallate], the CLP in series [7] (setting [9]) is listed as 1A. Besides, in series [7] (setting [10]), the CLP is given as 1A and the binary class entry is given as “sens”. In series [7] (per replicate line), the “true CLP” value is listed as 1A. Moreover, the “true CLP” value in series [7] is 1A. Moreover, in series [3], the “GARD predicted CLP” value is listed as 1A and the “predicted CLP” value is on record as 1A. In series [8], the “binary class (HP*)” value was “S (HP 1-4 = S)”, the HP is listed as 2 and the “Human potency [41]” value is 2. Besides, in series [4], the cytotox entry was “yes”. Also, the GARD binary prediction result in series [5] was “S”.

Values taken from patent publication US11324787B2, “Analytical methods and arrays for use in the same” (SENZAGEN AB, priority 2017, dated 2022).
